In patent US7398161B2, “Sampling method and sampling device, and logD measuring method and logD measuring system” (Banyu Pharmaceutical Co., Ltd., priority 2004, dated 2008):

How the values were obtained:
[1] = logD measurement by sampling of octanol/buffer two-layer sample with plug liquid, HPLC and mass spectrometer; conditions: octanol/buffer solution
[2] = J. Med. Chem. 2001, 44, 2490-2497; cited from earlier work

| SMILES | logD [1] | logD (physchem) | logD, Literature value [2] | logD, Measured value ([1]; average of three measurements (only one measurement for amiodarone)) |
| --- | --- | --- | --- | --- |
| C=CCc1ccccc1OCC(O)CNC(C)C (stereo not drawn) [Alprenolol] | 1.2 | – | 0.97 | – |
| NC(=O)N1c2ccccc2C=Cc2ccccc21 [Carbamazepine] | – | 1.8 | 2.19 | – |
| CN(C)CCCN1c2ccccc2Sc2ccc(Cl)cc21 [Chlorpromazine] | – | 3.5 | – | – |
| C[C@@H]1C[C@H]2[C@@H]3CCC4=CC(=O)C=C[C@]4(C)[C@@]3(F)[C@@H](O)C[C@]2(C)[C@@]1(O)C(=O)CO [Dexamethason] | – | – | 1.83 | 1.9 |
| COc1ccc([C@@H]2Sc3ccccc3N(CCN(C)C)C(=O)[C@@H]2OC(C)=O)cc1 [Diltiazem] | – | 2.3 | 2.06 | – |
| COCCc1ccc(OCC(O)CNC(C)C)cc1 (stereo not drawn) [Metoprolol] | – | 0.3 | – | – |

Continued, in another order:

| logD [1] | logD (physchem) | SMILES | logD, Literature value [2] | logD, Measured value ([1]; average of three measurements (only one measurement for amiodarone)) |
| --- | --- | --- | --- | --- |
| -1.9 | – | CC(C)(C)NCC(O)c1cc(O)cc(O)c1 (stereo not drawn) [Terbutaline] | −1.35 | – |
| – | 5.2 | c1ccc(-c2ccc(C(c3ccccc3)n3ccnc3)cc2)cc1 (stereo not drawn) [bifonazole] | 4.77 | – |
| – | 3.9 | C[C@]12CC[C@@H]3c4ccc(O)cc4CC[C@H]3[C@@H]1CC[C@@H]2O [estradiol] | – | – |
